According to patent US11931431B2, “PSMA-targeted radiopharmaceutical for diagnosing and treating prostate cancer” (FUTURECHEM CO., LTD, priority 2018, dated 2024):
“Also recorded” adds a separate entry of the source.

Experiments:
[1] = Measurement of lipophilicity (log P), n-octanol/PBS; format: physicochemical; conditions: mean of 3
Protocol: Each of the [^68Ga]1 compounds (1˜2 mci) synthesized in Example 14 was transferred into a vial, and the solvent was removed, to which 1 mL of n-octanol and 1 mL of PBS were added, and the lid was well closed, followed by mixing with a vortex for 1 minute. After the layers were separated, 0.1 mL was taken from each layer and the radiation dose was measured. The radiation dose was measured by repeating 3 times, and the mean value was obtained.

PSMA^+ PC-3 PIP tumors [2] = assay: MicroPET/CT imaging of mice transplanted with prostate cancer cell lines; format: in vivo, nude mouse
Protocol: A tumor model was prepared by subcutaneously injecting PSMA^+ PC-3 PIP cells (a human prostate cancer cell line) to the right side of the nude mouse hind leg. Each of the ^68Ga-labeled compounds [^68Ga]1e, [^68Ga]1g, [^68Ga]1h and [^68Ga]1k was intravenously injected with 5.5 to 6.5 MBq (148-175 μCi/200 μL), and PET/CT images were obtained using small animal INVEON PET/CT (Siemens medical solutions, Knoxville, USA) for 60 minutes. After 150 minutes, 270 minutes, and 390 minutes, PET/CT images were also obtained for 30 minutes. The obtained PET/CT image results were quantitatively analyzed using Inveon™ Research Workplace (IRW).
FIGS. 1, 2, 3, and 4 are graphs showing the quantitative analysis results of MicorPET/CT images for [^68Ga]1e, [^68Ga]1g, [^68Ga]1h, and [^68Ga]1k in % injected dose (ID)/g, and summarized in Tables 3, 4, 5, and 6, respectively.

PSMA^+ PC-3 PIP tumors [3] = assay: Biodistribution test with mice transplanted with prostate cancer cell lines (gamma counter); format: in vivo, nude mouse; conditions: 5 hours after injection, gamma counter
Protocol: After 270 minutes of [^68Ga]1e and [^68Ga]1g injection, microPET/CT images were obtained for 30 minutes, and then each organ (blood, muscle, fat, heart, lung, liver, spleen, stomach, intestine, kidney, bone and tumor) was extracted and the radioactivity thereof was measured using a gamma counter.

logP [1]: −2.88 | intake of mouse organ: Bladder (PSMA^+ PC-3 PIP tumors [2]; 10 min after injection): 19.37 ± 0.32 % ID/g | intake of mouse organ: Kidney (PSMA^+ PC-3 PIP tumors [2]; 10 min after injection): 21.37 ± 9.18 % ID/g | intake of mouse organ: Liver (PSMA^+ PC-3 PIP tumors [2]; 10 min after injection): 4.76 ± 0.42 % ID/g | intake of mouse organ: Muscle (PSMA^+ PC-3 PIP tumors [2]; 10 min after injection): 1.46 ± 0.14 % ID/g | intake of mouse organ: Tumor (PIP) (PSMA^+ PC-3 PIP tumors [2]; 10 min after injection): 2.33 ± 0.36 % ID/g | intake of mouse organ: Bladder (PSMA^+ PC-3 PIP tumors [2]; 20 min after injection): 47.31 ± 7.34 % ID/g | intake of mouse organ: Kidney (PSMA^+ PC-3 PIP tumors [2]; 20 min after injection): 10.96 ± 4.32 % ID/g | intake of mouse organ: Liver (PSMA^+ PC-3 PIP tumors [2]; 20 min after injection): 1.96 ± 0.22 % ID/g | intake of mouse organ: Muscle (PSMA^+ PC-3 PIP tumors [2]; 20 min after injection): 1.38 ± 0.11 % ID/g | intake of mouse organ: Tumor (PIP) (PSMA^+ PC-3 PIP tumors [2]; 20 min after injection): 3.64 ± 0.49 % ID/g | intake of mouse organ: Bladder (PSMA^+ PC-3 PIP tumors [2]; 30 min after injection): 55.82 ± 12.46 % ID/g | intake of mouse organ: Kidney (PSMA^+ PC-3 PIP tumors [2]; 30 min after injection): 10.88 ± 7.09 % ID/g | intake of mouse organ: Liver (PSMA^+ PC-3 PIP tumors [2]; 30 min after injection): 1.29 ± 0.05 % ID/g | intake of mouse organ: Muscle (PSMA^+ PC-3 PIP tumors [2]; 30 min after injection): 0.95 ± 0.13 % ID/g | intake of mouse organ: Tumor (PIP) (PSMA^+ PC-3 PIP tumors [2]; 30 min after injection): 4.08 ± 0.60 % ID/g | intake of mouse organ: Bladder (PSMA^+ PC-3 PIP tumors [2]; 40 min after injection): 60.63 ± 15.48 % ID/g | intake of mouse organ: Kidney (PSMA^+ PC-3 PIP tumors [2]; 40 min after injection): 14.92 ± 13.57 % ID/g | intake of mouse organ: Liver (PSMA^+ PC-3 PIP tumors [2]; 40 min after injection): 1.00 ± 0.03 % ID/g | intake of mouse organ: Muscle (PSMA^+ PC-3 PIP tumors [2]; 40 min after injection): 0.61 ± 0.05 % ID/g | intake of mouse organ: Tumor (PIP) (PSMA^+ PC-3 PIP tumors [2]; 40 min after injection): 4.44 ± 0.48 % ID/g | intake of mouse organ: Bladder (PSMA^+ PC-3 PIP tumors [2]; 50 min after injection): 64.24 ± 12.76 % ID/g | intake of mouse organ: Kidney (PSMA^+ PC-3 PIP tumors [2]; 50 min after injection): 15.84 ± 15.60 % ID/g | intake of mouse organ: Liver (PSMA^+ PC-3 PIP tumors [2]; 50 min after injection): 0.80 ± 0.02 % ID/g | intake of mouse organ: Muscle (PSMA^+ PC-3 PIP tumors [2]; 50 min after injection): 0.53 ± 0.05 % ID/g | intake of mouse organ: Tumor (PIP) (PSMA^+ PC-3 PIP tumors [2]; 50 min after injection): 4.56 ± 1.03 % ID/g | intake of mouse organ: Bladder (PSMA^+ PC-3 PIP tumors [2]; 60 min after injection): 67.80 ± 8.56 % ID/g | intake of mouse organ: Kidney (PSMA^+ PC-3 PIP tumors [2]; 60 min after injection): 15.72 ± 16.29 % ID/g | intake of mouse organ: Liver (PSMA^+ PC-3 PIP tumors [2]; 60 min after injection): 0.65 ± 0.04 % ID/g | intake of mouse organ: Muscle (PSMA^+ PC-3 PIP tumors [2]; 60 min after injection): 0.35 ± 0.05 % ID/g | intake of mouse organ: Tumor (PIP) (PSMA^+ PC-3 PIP tumors [2]; 60 min after injection): 4.73 ± 0.98 % ID/g | intake of mouse organ: Bladder (PSMA^+ PC-3 PIP tumors [2]; 150 min after injection): 31.85 ± 35.57 % ID/g | intake of mouse organ: Kidney (PSMA^+ PC-3 PIP tumors [2]; 150 min after injection): 0.70 ± 0.02 % ID/g | intake of mouse organ: Liver (PSMA^+ PC-3 PIP tumors [2]; 150 min after injection): 0.06 ± 0.01 % ID/g | intake of mouse organ: Muscle (PSMA^+ PC-3 PIP tumors [2]; 150 min after injection): 0.02 ± 0.01 % ID/g | intake of mouse organ: Tumor (PIP) (PSMA^+ PC-3 PIP tumors [2]; 150 min after injection): 4.20 ± 0.42 % ID/g | intake of mouse organ: Bladder (PSMA^+ PC-3 PIP tumors [2]; 270 min after injection): 1.45 ± 1.62 % ID/g | intake of mouse organ: Kidney (PSMA^+ PC-3 PIP tumors [2]; 270 min after injection): 0.41 ± 0.16 % ID/g | intake of mouse organ: Liver (PSMA^+ PC-3 PIP tumors [2]; 270 min after injection): 0.03 ± 0.01 % ID/g | intake of mouse organ: Muscle (PSMA^+ PC-3 PIP tumors [2]; 270 min after injection): 0.01 ± 0.01 % ID/g | intake of mouse organ: Tumor (PIP) (PSMA^+ PC-3 PIP tumors [2]; 270 min after injection): 4.05±0.64 % ID/g | Radioactivity in mouse organ: Blood (PSMA^+ PC-3 PIP tumors [3]): 0.01 ± 0.00 % ID/g | Radioactivity in mouse organ: Bone (PSMA^+ PC-3 PIP tumors [3]): 0.00 ± 0.00 % ID/g | Radioactivity in mouse organ: Fat (PSMA^+ PC-3 PIP tumors [3]): 0.01 ± 0.00 % ID/g | Radioactivity in mouse organ: Heart (PSMA^+ PC-3 PIP tumors [3]): 0.01 ± 0.00 % ID/g | Radioactivity in mouse organ: Intestine (PSMA^+ PC-3 PIP tumors [3]): 0.09 ± 0.08 % ID/g | Radioactivity in mouse organ: Kidney (PSMA^+ PC-3 PIP tumors [3]): 0.82 ± 0.51 % ID/g | Radioactivity in mouse organ: Liver (PSMA^+ PC-3 PIP tumors [3]): 0.02 ± 0.01 % ID/g | Radioactivity in mouse organ: Lung (PSMA^+ PC-3 PIP tumors [3]): 0.02 ± 0.01 % ID/g | Radioactivity in mouse organ: Muscle (PSMA^+ PC-3 PIP tumors [3]): 0.01 ± 0.00 % ID/g | Radioactivity in mouse organ: PSMA + PIP (tumor intake rate) (PSMA^+ PC-3 PIP tumors [3]): 7.34 ± 5.49 % ID/g | Radioactivity in mouse organ: Spleen (PSMA^+ PC-3 PIP tumors [3]): 0.01 ± 0.00 % ID/g | Radioactivity in mouse organ: Stomach (PSMA^+ PC-3 PIP tumors [3]): 0.02 ± 0.02 % ID/g
Structure (SMILES): O=C(O)CCC(NC(=O)NC(CCCCN(CC(=O)O)C(=O)COCCOCCNC(=O)CN1CCN2CCN3CCN(CC1)CC(=O)[O][68Ga]([O]C(=O)C2)[O]C(=O)C3)C(=O)O)C(=O)O (stereo not drawn) [[^68Ga]1e]
excretion, in words (PSMA^+ PC-3 PIP tumors [2]; MicroPET/CT): rapidly excreted through the kidney and bladder; also recorded: rapidly excreted out of the body
